Measured values from article PMC8160793, “Potent Antimicrobial and Antibiofilm Activities of Feleucin-K3 Analogs Modified by α-(4-Pentenyl)-Ala against Multidrug-Resistant Bacteria” (Biomolecules, 2021).
Converted amounts (≈) assume the structure as drawn. Square brackets hold non-standard residues; d marks the D form. Peptide text beside a SMILES is read from it. ξ: configuration not given here. ξαMeGly(pent-4-enyl) = C=CCCCC(C)(N)C(=O)O

What was measured:
[1] = test system: A. baumannii ATCC 19606; type: cell-based, Acinetobacter baumannii; conditions: ATCC 19606, 24 h
Protocol: (§1) The antibiofilm activity of the peptides was determined according to the previously described methods. Strains (final concentration of 5 × 10^5 CFU/mL) and peptides (4–128 μg/mL) were incubated for 24 h at 37 °C. Biofilm cells were cleaned with 0.01-M PBS and fixed with methanol. Crystal violet (0.1%, HopeBiol, Qingdao, China) was used to stain the biofilm cells for 10 min. After washing with water, 95% ethanol was finally added, and the optical density at 595 nm was measured with a microplate reader (Flex Station 3; Laguna Hills, CA, USA).

[2] = test system: A. baumannii 822144; type: cell-based, Acinetobacter baumannii; conditions: 822144, 18 h
Outline: (§2)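 Each strain is diluted to 1 × 10^6 CFU/mL and incubated with 8–128 μg/mL peptide at 37 °C for 18 h. No obvious growth defines the MIC, repeated to three matching results; a 450-mM NaCl condition probes salt stability.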

[3] = test system: A. baumannii 9828; type: cell-based, Acinetobacter baumannii; conditions: 9828, 18 h
Outline: as §2

[4] = test system: A. baumannii 98110; type: cell-based, Acinetobacter baumannii; conditions: 98110, 18 h
Outline: as §2

[5] = test system: A. baumannii 91105; type: cell-based, Acinetobacter baumannii; conditions: 91105, 18 h
Outline: as §2

[6] = test system: A. baumannii 91869; type: cell-based, Acinetobacter baumannii; conditions: 91869, 18 h
Outline: as §2

[7] = test system: A. baumannii 9236; type: cell-based, Acinetobacter baumannii; conditions: 9236, 18 h
Outline: as §2

[8] = test system: A. baumannii 97830; type: cell-based, Acinetobacter baumannii; conditions: 97830, 18 h
Outline: as §2

[9] = test system: A. baumannii 92359; type: cell-based, Acinetobacter baumannii; conditions: 92359, 18 h
Outline: as §2

[10] = test system: A. baumannii 91810; type: cell-based, Acinetobacter baumannii; conditions: 91810, 18 h
Outline: as §2

[11] = test system: A. baumannii 51243; type: cell-based, Acinetobacter baumannii; conditions: 51243, 18 h
Outline: as §2

[12] = test system: A. baumannii 9336; type: cell-based, Acinetobacter baumannii; conditions: 9336, 18 h
Outline: as §2

[13] = test system: A. baumannii 9331; type: cell-based, Acinetobacter baumannii; conditions: 9331, 18 h
Outline: as §2

[14] = test system: A. baumannii 9896; type: cell-based, Acinetobacter baumannii; conditions: 9896, 18 h
Outline: as §2

[15] = test system: A. baumannii 91152; type: cell-based, Acinetobacter baumannii; conditions: 91152, 18 h
Outline: as §2

[16] = test system: A. baumannii 8309; type: cell-based, Acinetobacter baumannii; conditions: 8309, 18 h
Outline: as §2

[17] = test system: A. baumannii 9234; type: cell-based, Acinetobacter baumannii; conditions: 9234, 18 h
Outline: as §2

[18] = test system: A. baumannii 91944; type: cell-based, Acinetobacter baumannii; conditions: 91944, 18 h
Outline: as §2

[19] = test system: A. baumannii 5444; type: cell-based, Acinetobacter baumannii; conditions: 5444, 18 h
Outline: as §2

[20] = test system: A. baumannii ATCC 19606; type: cell-based, Acinetobacter baumannii; conditions: ATCC 19606, 18 h
Outline: as §2

[21] = test system: A. baumannii 9840; type: cell-based, Acinetobacter baumannii; conditions: 9840, 18 h
Outline: as §2

[22] = test system: A. baumannii 91199; type: cell-based, Acinetobacter baumannii; conditions: 91199, 18 h
Outline: as §2

[23] = test system: P.aeruginosa ATCC 27853; type: cell-based, Pseudomonas aeruginosa; conditions: ATCC 27853, 24 h
Protocol: as §1

[24] = test system: MRSA 54; type: cell-based, Staphylococcus aureus; conditions: 54, 18 h
Outline: as §2

[25] = test system: MRSA 52; type: cell-based, Staphylococcus aureus; conditions: 52, 18 h
Outline: as §2

[26] = test system: MRSA 71; type: cell-based, Staphylococcus aureus; conditions: 71, 18 h
Outline: as §2

[27] = test system: MRSA 75; type: cell-based, Staphylococcus aureus; conditions: 75, 18 h
Outline: as §2

[28] = test system: S. aureus 725; type: cell-based, Staphylococcus aureus; conditions: 725, 18 h
Outline: as §2

[29] = test system: MRSA 51; type: cell-based, Staphylococcus aureus; conditions: 51, 18 h
Outline: as §2

[30] = test system: MRSA 74; type: cell-based, Staphylococcus aureus; conditions: 74, 18 h
Outline: as §2

[31] = test system: MRSA 23; type: cell-based, Staphylococcus aureus; conditions: 23, 18 h
Outline: as §2

[32] = test system: S. aureus 794; type: cell-based, Staphylococcus aureus; conditions: 794, 18 h
Outline: as §2

[33] = test system: MRSA ATCC 33591; type: cell-based, Staphylococcus aureus; conditions: ATCC 33591, 18 h
Outline: as §2

[34] = test system: MRSA 936; type: cell-based, Staphylococcus aureus; conditions: 936, 18 h
Outline: as §2

[35] = test system: S. aureus ATCC 25923; type: cell-based, Staphylococcus aureus; conditions: ATCC 25923, 18 h
Outline: as §2

| Compound | MBIC50, A. baumannii ATCC 19606 [1] [µg/mL] | MBIC90, A. baumannii ATCC 19606 [1] [µg/mL] | MIC, A. baumannii 822144 [2] [µg/mL] | MIC, A. baumannii 9828 [3] [µg/mL] | MIC, A. baumannii 98110 [4] [µg/mL] | MIC, A. baumannii 91105 [5] [µg/mL] | MIC, A. baumannii 91869 [6] [µg/mL] | MIC, A. baumannii 9236 [7] [µg/mL] | MIC, A. baumannii 97830 [8] [µg/mL] | MIC, A. baumannii 92359 [9] [µg/mL] | MIC, A. baumannii 91810 [10] [µg/mL] | MIC, A. baumannii 51243 [11] [µg/mL] | MIC, A. baumannii 9336 [12] [µg/mL] | MIC, A. baumannii 9331 [13] [µg/mL] | MIC, A. baumannii 9896 [14] [µg/mL] | MIC, A. baumannii 91152 [15] [µg/mL] | MIC, A. baumannii 8309 [16] [µg/mL] | MIC, A. baumannii 9234 [17] [µg/mL] | MIC, A. baumannii 91944 [18] [µg/mL] | MIC, A. baumannii 5444 [19] [µg/mL] | further results |
| --- | --- | --- | --- | --- | --- | --- | --- | --- | --- | --- | --- | --- | --- | --- | --- | --- | --- | --- | --- | --- | --- |
| C=CCCCC(C)(N)C(=O)N[C@@H](CC(C)C)C(=O)N[C@@H](CCCCN)C(=O)N[C@@H](CC(C)C)C(=O)N[C@@H](CC(C)C)C(=O)N[C@@H](CCCCN)C(=O)N[C@@H](CCCCN)C(=O)N[C@@H](CC(C)C)C(=O)N[C@@H](CC(C)C)C(N)=O (some centres unmarked) [Feleucin-K65] (H-[ξαMeGly(pent-4-enyl)]LKLLKKLL-NH2) | 8 | 8 | 8 (≈ 7.23 µM) | 4 (≈ 3.61 µM) | 4 (≈ 3.61 µM) | 4 (≈ 3.61 µM) | 4 (≈ 3.61 µM) | 4 (≈ 3.61 µM) | 4 (≈ 3.61 µM) | 4 (≈ 3.61 µM) | 4 (≈ 3.61 µM) | 4 (≈ 3.61 µM) | 4 (≈ 3.61 µM) | 8 (≈ 7.23 µM) | 4 (≈ 3.61 µM) | 4 (≈ 3.61 µM) | 4 (≈ 3.61 µM) | 4 (≈ 3.61 µM) | 4 (≈ 3.61 µM) | 4 (≈ 3.61 µM) | MIC, A. baumannii ATCC 19606 [20]: 4 µg/mL (≈ 3.61 µM); MIC, A. baumannii 9840 [21]: 4 µg/mL (≈ 3.61 µM); MIC, A. baumannii 91199 [22]: 4 µg/mL (≈ 3.61 µM); MBIC50, P.aeruginosa ATCC 27853 [23]: 8 µg/mL; MBIC90, P.aeruginosa ATCC 27853 [23]: 16 µg/mL; MIC, MRSA 54 [24]: 4 µg/mL (≈ 3.61 µM); MIC, MRSA 52 [25]: 4 µg/mL (≈ 3.61 µM); MIC, MRSA 71 [26]: 4 µg/mL (≈ 3.61 µM); MIC, MRSA 75 [27]: 4 µg/mL (≈ 3.61 µM); MIC, S. aureus 725 [28]: 4 µg/mL (≈ 3.61 µM); MIC, MRSA 51 [29]: 8 µg/mL (≈ 7.23 µM); MIC, MRSA 74 [30]: 4 µg/mL (≈ 3.61 µM); MIC, MRSA 23 [31]: 4 µg/mL (≈ 3.61 µM); MIC, S. aureus 794 [32]: 8 µg/mL (≈ 7.23 µM); MIC, MRSA ATCC 33591 [33]: 4 µg/mL (≈ 3.61 µM); MIC, MRSA 936 [34]: 4 µg/mL (≈ 3.61 µM); MIC, S. aureus ATCC 25923 [35]: 8 µg/mL (≈ 7.23 µM) |
| C=CCCCC(C)(NC(=O)[C@H](CC(C)C)NC(=O)[C@H](CCCCN)NC(=O)[C@H](CCCCN)NC(=O)[C@H](CC(C)C)NC(=O)[C@H](CC(C)C)NC(=O)[C@H](CCCCN)NC(=O)[C@H](CC(C)C)NC(=O)[C@@H](N)Cc1ccccc1)C(N)=O (some centres unmarked) [Feleucin-K70] (H-FLKLLKKL[ξαMeGly(pent-4-enyl)]-NH2) | 8 | 16 | 8 (≈ 7.01 µM) | 8 (≈ 7.01 µM) | 8 (≈ 7.01 µM) | 4 (≈ 3.51 µM) | 8 (≈ 7.01 µM) | 8 (≈ 7.01 µM) | 8 (≈ 7.01 µM) | 8 (≈ 7.01 µM) | 8 (≈ 7.01 µM) | 8 (≈ 7.01 µM) | 8 (≈ 7.01 µM) | 16 (≈ 14 µM) | 4 (≈ 3.51 µM) | 8 (≈ 7.01 µM) | 8 (≈ 7.01 µM) | 8 (≈ 7.01 µM) | 8 (≈ 7.01 µM) | 8 (≈ 7.01 µM) | MIC, A. baumannii ATCC 19606 [20]: 8 µg/mL (≈ 7.01 µM); MIC, A. baumannii 9840 [21]: 8 µg/mL (≈ 7.01 µM); MIC, A. baumannii 91199 [22]: 8 µg/mL (≈ 7.01 µM); MBIC50, P.aeruginosa ATCC 27853 [23]: 8 µg/mL; MBIC90, P.aeruginosa ATCC 27853 [23]: 16 µg/mL; MIC, MRSA 54 [24]: 8 µg/mL (≈ 7.01 µM); MIC, MRSA 52 [25]: 8 µg/mL (≈ 7.01 µM); MIC, MRSA 71 [26]: 8 µg/mL (≈ 7.01 µM); MIC, MRSA 75 [27]: 8 µg/mL (≈ 7.01 µM); MIC, S. aureus 725 [28]: 8 µg/mL (≈ 7.01 µM); MIC, MRSA 51 [29]: 8 µg/mL (≈ 7.01 µM); MIC, MRSA 74 [30]: 8 µg/mL (≈ 7.01 µM); MIC, MRSA 23 [31]: 8 µg/mL (≈ 7.01 µM); MIC, S. aureus 794 [32]: 8 µg/mL (≈ 7.01 µM); MIC, MRSA ATCC 33591 [33]: 8 µg/mL (≈ 7.01 µM); MIC, MRSA 936 [34]: 8 µg/mL (≈ 7.01 µM); MIC, S. aureus ATCC 25923 [35]: 8 µg/mL (≈ 7.01 µM) |
